From ChEMBL document CHEMBL1201862, “PubChem BioAssay data set” (2004)
Activity calls are given as the source filed them.

Assays:
[1] = molecular target: Mucolipin-3 (Homo sapiens, UniProt Q8TDD5); experiment: Dose response cell-based high-throughput screening assay for agonists of the transient receptor potential channel ML3 (TRPML3). [Related pubchem assays: 1526, 1424, 1448 ]; format: functional
[2] = molecular target: Ion channel NompC (Danio rerio, UniProt Q7T1G6); experiment: Fluorescence counterscreen assay for TRPML3 agonists: dose response cell-based high-throughput screening assay to identify agonists of the transient receptor potential channel N1 (TRPN1). [Related pubchem assays: 1526, 1424, 1448 ]; format: functional
Chain of Ion channel NompC (Q7T1G6 whole entry): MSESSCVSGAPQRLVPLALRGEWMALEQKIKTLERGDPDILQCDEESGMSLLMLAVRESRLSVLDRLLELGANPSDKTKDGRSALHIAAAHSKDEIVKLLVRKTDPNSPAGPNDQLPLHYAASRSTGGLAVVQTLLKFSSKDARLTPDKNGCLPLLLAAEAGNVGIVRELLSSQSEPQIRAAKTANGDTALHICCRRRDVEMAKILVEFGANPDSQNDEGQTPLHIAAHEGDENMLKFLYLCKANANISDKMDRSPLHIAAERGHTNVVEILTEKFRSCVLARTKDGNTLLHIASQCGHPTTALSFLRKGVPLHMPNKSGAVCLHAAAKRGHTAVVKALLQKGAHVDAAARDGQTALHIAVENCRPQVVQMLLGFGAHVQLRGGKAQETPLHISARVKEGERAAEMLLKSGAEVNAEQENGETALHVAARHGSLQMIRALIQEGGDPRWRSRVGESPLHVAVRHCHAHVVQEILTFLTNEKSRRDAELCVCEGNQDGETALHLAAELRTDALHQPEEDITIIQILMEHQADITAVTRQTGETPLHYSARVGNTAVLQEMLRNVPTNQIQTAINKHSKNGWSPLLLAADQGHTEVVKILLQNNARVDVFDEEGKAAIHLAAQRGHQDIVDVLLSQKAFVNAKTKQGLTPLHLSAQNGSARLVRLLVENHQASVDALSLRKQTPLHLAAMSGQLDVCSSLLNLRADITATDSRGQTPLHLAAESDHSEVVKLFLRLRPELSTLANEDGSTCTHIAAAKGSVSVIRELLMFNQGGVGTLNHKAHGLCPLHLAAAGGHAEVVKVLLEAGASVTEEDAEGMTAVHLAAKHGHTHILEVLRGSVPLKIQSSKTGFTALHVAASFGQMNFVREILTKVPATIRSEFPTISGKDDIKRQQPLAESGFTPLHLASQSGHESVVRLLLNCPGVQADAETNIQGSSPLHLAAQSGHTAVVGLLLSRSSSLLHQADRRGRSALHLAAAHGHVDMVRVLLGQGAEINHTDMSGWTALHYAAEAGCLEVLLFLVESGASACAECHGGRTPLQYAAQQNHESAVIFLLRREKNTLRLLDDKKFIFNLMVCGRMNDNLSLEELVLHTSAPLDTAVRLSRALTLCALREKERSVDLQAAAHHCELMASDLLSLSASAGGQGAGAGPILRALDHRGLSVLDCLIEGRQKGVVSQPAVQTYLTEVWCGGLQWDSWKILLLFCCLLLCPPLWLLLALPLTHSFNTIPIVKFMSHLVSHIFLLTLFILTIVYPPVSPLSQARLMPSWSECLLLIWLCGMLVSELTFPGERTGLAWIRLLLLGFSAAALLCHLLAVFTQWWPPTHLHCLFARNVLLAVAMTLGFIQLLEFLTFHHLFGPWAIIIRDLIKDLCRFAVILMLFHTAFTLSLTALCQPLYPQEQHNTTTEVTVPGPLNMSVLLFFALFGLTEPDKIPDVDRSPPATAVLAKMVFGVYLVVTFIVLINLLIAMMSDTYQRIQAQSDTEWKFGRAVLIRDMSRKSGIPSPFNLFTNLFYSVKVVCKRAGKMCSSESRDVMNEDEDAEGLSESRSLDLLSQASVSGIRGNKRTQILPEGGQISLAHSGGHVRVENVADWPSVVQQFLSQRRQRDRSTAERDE

[3] = inhibitors of Bluetongue virus cytopathic effect, confirmation, arbovirus, BSR cells (AID 1250); format: functional;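 also: protection from viral cytopathic effect measured as cell viability by ATP luminescence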
[4] = molecular target: Glucose-6-phosphate 1-dehydrogenase (Homo sapiens, UniProt P11413); experiment: human G6PD enzyme inhibitors, dose response, selectivity assay for P. falciparum G6PD inhibitor project, biochemical, fluorescence (AID 504792); format: functional
Chain of Glucose-6-phosphate 1-dehydrogenase (P11413 whole entry): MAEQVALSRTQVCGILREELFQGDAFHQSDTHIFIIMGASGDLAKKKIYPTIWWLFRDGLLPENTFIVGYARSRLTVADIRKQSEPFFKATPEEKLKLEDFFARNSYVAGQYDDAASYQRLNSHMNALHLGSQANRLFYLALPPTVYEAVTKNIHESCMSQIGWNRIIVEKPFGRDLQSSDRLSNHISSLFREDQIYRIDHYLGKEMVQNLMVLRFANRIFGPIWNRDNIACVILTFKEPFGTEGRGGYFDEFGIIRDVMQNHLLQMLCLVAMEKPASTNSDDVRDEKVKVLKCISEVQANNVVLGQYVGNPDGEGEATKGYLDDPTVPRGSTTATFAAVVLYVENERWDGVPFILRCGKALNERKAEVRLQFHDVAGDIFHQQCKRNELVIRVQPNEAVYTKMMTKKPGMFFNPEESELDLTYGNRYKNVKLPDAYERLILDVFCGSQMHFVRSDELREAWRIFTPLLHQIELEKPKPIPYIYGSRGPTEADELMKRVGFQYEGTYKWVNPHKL

[5] = molecular target: T1, Hexokinase HKDC1 (Homo sapiens, UniProt Q2TB90); experiment: HKDC1 hexokinase inhibitors, dose response, biochemical, W721R variant (AID 504729); format: functional
T1 sequence (Q2TB90 whole entry): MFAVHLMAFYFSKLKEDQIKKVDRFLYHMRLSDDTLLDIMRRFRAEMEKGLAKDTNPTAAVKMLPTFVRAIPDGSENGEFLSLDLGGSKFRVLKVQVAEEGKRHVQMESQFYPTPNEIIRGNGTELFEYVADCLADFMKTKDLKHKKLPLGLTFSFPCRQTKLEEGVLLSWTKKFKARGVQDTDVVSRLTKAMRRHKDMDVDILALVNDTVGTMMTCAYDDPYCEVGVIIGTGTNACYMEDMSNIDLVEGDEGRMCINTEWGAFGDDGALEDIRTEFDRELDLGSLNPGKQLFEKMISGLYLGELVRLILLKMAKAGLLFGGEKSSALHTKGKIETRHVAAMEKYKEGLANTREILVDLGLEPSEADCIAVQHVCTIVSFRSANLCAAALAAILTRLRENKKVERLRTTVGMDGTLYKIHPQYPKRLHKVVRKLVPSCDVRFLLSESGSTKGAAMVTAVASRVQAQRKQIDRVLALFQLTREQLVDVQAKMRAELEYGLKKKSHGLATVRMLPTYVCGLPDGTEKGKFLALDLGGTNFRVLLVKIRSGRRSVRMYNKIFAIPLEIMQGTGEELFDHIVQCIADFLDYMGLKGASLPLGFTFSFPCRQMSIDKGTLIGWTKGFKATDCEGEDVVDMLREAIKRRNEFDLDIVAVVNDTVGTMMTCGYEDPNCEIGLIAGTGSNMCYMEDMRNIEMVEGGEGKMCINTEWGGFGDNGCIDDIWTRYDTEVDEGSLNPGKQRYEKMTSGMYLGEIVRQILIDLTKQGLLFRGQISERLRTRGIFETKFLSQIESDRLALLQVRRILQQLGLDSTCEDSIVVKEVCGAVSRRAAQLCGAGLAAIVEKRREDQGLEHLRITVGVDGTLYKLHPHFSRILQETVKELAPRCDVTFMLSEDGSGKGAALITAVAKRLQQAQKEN

[6] = molecular target: T2, Hepatocyte nuclear factor 4-alpha (Homo sapiens, UniProt P41235); format: functional, cell-based;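 also: biochemical luminescence-based dose-response counterscreen measuring inhibition of HNF4 dimerization, run alongside a screen for blockers of ABHD5–perilipin-5 interaction; split luciferase complementation of HNF4 fusion proteins in cell lysate measuring dimerization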
T2 sequence (P41235 whole entry): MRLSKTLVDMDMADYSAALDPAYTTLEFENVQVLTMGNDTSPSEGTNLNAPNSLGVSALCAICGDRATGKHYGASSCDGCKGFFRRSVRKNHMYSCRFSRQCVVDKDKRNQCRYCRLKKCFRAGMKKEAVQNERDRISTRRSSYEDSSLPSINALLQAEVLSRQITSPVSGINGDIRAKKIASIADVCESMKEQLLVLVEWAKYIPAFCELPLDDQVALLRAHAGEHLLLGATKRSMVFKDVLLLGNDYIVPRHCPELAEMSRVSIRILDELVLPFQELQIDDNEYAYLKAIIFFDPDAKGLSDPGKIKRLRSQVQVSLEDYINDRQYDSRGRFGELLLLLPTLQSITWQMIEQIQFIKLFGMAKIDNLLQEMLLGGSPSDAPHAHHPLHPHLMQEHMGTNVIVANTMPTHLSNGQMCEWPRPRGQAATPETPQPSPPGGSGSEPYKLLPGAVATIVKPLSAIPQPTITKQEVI

[7] = HEp-2 cell cytotoxicity, dose response, cytotoxicity control for RSV inhibitor project, HTS (AID 2410); format: functional; details: human respiratory syncytial virus
[8] = cells
[9] = molecular target: Bcl-2-like protein 10 (Homo sapiens, UniProt Q9HD36); experiment: displacers of TR3 peptide from Bcl-B, primary screen, selectivity assay for Bfl-1 inhibitor project, biochemical, fluorescence polarization, FITC-TR3 peptide (AID 748);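 also: fluorescence polarization from a fluorescein-labelled TR3 peptide binding purified Bcl-B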
Chain of Bcl-2-like protein 10 (Q9HD36 whole entry): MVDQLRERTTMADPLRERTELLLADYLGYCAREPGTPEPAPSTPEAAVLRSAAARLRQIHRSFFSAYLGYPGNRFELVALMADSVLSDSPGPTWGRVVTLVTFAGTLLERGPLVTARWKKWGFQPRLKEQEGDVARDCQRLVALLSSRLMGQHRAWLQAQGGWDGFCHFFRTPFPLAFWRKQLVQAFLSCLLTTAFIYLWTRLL

[10] = tested on: Streptococcus sp. 'group A'; experiment: growth inhibition of control SK(-) GAS strain, dose response, counter-screen for streptokinase expression inhibitor project, luminescence, kanamycin, BacTiterGlo, confirmation (AID 1900); format: functional, organism-based
[11] = molecular target: T3, Streptokinase A (Streptococcus pyogenes serotype M1, UniProt P10520); experiment: S. pyogenes streptokinase expression inhibitors, potency, dose response, plasminogen activation absorbance, OD405 (AID 1914); format: functional, Streptococcus pyogenes M1 GAS;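 also: secreted streptokinase activity via plasminogen activation per viability signal from cell pellet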
T3 sequence (P10520 whole entry): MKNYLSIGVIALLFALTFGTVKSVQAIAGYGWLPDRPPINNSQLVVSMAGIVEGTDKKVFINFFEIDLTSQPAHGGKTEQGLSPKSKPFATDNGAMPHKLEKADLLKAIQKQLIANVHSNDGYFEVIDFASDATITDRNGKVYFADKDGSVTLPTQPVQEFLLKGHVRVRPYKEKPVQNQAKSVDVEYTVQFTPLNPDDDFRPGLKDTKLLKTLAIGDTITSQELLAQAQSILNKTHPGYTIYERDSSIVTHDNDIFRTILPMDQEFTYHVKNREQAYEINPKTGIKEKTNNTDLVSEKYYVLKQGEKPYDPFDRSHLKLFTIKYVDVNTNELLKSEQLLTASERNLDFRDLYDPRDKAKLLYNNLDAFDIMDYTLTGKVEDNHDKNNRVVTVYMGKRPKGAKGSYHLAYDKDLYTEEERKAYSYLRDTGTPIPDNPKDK

[12] = tested on: Streptococcus; experiment: Group A Streptococcus viability loss, dose response, counter-screen for streptokinase expression inhibitor project, luminescence, BacTiterGlo (AID 1915); format: functional, organism-based;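 also: potency for reduction of bacterial viability or growth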
[13] = molecular target: X-box-binding protein 1 (Homo sapiens, UniProt P17861); format: functional, Cricetulus griseus;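 also: confirmatory dose-response counter-screen serving a CHOP assay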
Chain of X-box-binding protein 1 (P17861 whole entry): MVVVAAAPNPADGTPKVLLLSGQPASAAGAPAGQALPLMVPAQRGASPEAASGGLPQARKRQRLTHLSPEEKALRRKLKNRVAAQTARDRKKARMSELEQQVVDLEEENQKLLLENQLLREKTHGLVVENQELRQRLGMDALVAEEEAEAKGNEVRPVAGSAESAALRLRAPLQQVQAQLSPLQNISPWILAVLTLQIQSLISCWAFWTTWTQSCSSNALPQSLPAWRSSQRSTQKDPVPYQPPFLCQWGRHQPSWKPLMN

[14] = molecular target: Cytochrome P450 2C9 (Homo sapiens, UniProt P11712); details: Potency
Chain of Cytochrome P450 2C9 (P11712 whole entry): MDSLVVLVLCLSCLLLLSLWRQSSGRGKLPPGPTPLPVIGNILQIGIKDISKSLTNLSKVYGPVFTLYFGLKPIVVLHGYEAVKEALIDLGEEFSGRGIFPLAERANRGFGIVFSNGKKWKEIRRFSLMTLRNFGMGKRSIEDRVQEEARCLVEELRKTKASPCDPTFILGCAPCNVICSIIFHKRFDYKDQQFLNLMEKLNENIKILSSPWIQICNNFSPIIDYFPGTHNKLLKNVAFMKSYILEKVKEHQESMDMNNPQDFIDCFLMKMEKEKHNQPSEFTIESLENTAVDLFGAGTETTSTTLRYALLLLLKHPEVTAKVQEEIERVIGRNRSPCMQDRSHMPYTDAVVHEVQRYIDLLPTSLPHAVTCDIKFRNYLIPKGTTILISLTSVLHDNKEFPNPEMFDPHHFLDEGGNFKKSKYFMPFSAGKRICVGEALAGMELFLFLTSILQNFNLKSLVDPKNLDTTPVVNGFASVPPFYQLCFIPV

[15] = Luminescence Cell-Based Dose Confirmation HTS to Identify Inhibitors of Polyadenylation.; format: functional
[16] = inhibitors of firefly luciferase expression or activity, dose response, H4 neuroglioma cells, luminescence (AID 1990); format: functional, cell-based
[17] = Luminescence Cell-Based Dose Response HTS to Identify Inhibitors of 5'UTR Stem-Loop Driven Prion Protein mRNA Translation in H4 Neuroglioblastoma Cells. [Related pubchem assays: 1827 (Project Summary), 1813 (Primary HTS)]; format: functional
[18] = molecular target: T4, Heat shock factor protein 1 (Mus musculus, UniProt P38532); experiment: inhibition of MG132-induced HSE-luciferase signal, confirmation, cell-based, NIH3T3, luminescence, dose retest (AID 2382); format: functional;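 also: NIH3T3 fibroblasts with HSF1-driven luciferase reporter stressed by proteasome inhibitor MG132; luminescence from HSF1-driven luciferase expression after 8 hours of MG132 stress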
T4 sequence (P38532 whole entry): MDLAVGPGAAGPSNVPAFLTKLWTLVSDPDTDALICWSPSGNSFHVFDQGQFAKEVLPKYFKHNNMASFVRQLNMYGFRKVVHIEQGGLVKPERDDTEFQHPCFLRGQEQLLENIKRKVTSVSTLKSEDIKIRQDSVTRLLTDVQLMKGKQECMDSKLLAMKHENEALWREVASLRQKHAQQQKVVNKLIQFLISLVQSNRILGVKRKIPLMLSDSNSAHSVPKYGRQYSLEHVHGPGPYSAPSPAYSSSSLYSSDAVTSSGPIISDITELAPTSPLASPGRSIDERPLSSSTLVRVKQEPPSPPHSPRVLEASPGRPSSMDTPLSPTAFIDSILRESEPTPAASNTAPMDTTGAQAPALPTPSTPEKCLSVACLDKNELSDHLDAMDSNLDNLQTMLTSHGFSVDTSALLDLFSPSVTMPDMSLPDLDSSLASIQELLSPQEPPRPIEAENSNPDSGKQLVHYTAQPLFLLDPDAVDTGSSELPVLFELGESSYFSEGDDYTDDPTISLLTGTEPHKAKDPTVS

[19] = inhibitors of SNCA 5'UTR-driven reporter translation, confirmation, H4 neuroglioma cells, luminescence (AID 1988); format: functional, cell-based
[20] = molecular target: Luciferin 4-monooxygenase (Photinus pyralis, UniProt P08659); experiment: firefly luciferase enzyme inhibitors, dose response, biochemical, luminescence (AID 1891)
Chain of Luciferin 4-monooxygenase (P08659 whole entry): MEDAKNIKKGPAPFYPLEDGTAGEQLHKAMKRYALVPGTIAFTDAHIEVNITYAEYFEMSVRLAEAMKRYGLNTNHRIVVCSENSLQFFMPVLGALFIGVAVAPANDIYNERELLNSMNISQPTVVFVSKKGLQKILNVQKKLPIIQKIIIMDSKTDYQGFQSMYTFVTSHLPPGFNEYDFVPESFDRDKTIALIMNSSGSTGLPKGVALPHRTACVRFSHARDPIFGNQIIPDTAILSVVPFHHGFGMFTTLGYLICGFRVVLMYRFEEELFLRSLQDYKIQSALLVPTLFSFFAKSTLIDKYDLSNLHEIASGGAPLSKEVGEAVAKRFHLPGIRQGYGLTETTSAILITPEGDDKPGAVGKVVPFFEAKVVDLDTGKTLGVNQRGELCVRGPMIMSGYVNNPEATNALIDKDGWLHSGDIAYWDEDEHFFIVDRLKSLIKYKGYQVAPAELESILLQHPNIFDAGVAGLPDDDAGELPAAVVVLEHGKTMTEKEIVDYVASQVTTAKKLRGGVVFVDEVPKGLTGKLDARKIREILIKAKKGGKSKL

[21] = Luminescence Cell-Based Dose Confirmation HTS to Identify Inhibitors of Platelet Dense Granule Release. [Related pubchem assays: 1663 (Primary HTS), 1678 (Summary of Project)]; format: functional
[22] = Luminescence-based counterscreen assay for KLF5 inhibitors: dose response cell-based high throughput screening assay to identify cytotoxic compounds using the IEC-6 intestinal epithelial cell line. [Related pubchem assays: 1700 (Primary screen.), 1834 (Confirmation screen.), 1858 (Summary AID.), 1905 (Counterscreen.)]; format: functional
[23] = molecular target: Neurotensin receptor type 1 (Homo sapiens, UniProt P30989); format: functional;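 also: Image-based confirmatory dose-response assay measuring agonist activity at NTR1; NTR1-expressing U2OS osteosarcoma cells imaged for beta-arrestin GFP spot formation; agonist potency where compounds increase beta-arrestin recruitment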
Chain of Neurotensin receptor type 1 (P30989 whole entry): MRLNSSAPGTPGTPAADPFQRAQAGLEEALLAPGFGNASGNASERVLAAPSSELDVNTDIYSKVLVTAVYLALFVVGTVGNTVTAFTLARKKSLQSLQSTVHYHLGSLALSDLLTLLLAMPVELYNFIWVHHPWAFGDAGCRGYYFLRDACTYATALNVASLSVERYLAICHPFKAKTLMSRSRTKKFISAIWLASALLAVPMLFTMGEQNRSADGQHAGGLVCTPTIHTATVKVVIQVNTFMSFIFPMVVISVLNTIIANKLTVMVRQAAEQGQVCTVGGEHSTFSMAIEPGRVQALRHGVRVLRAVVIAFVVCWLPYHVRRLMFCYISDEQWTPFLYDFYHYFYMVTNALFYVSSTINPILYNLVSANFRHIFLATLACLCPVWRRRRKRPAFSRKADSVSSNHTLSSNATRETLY

[24] = molecular target: Protein-tyrosine kinase 2-beta (Homo sapiens, UniProt Q14289);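 also: potency of inhibitors of PYK2 kinase phosphorylation of poly-GT substrate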
[25] = molecular target: T5, Corticotropin-releasing factor receptor 2/Corticotropin-releasing factor-binding protein (Homo sapiens, UniProt P24387+Q13324); experiment: activators of CRF receptor 2 with binding protein – uHTS hits, confirmation (AID 602473); format: functional; details: read-out: EC50_Mean
T5 sequence (Q13324 whole entry): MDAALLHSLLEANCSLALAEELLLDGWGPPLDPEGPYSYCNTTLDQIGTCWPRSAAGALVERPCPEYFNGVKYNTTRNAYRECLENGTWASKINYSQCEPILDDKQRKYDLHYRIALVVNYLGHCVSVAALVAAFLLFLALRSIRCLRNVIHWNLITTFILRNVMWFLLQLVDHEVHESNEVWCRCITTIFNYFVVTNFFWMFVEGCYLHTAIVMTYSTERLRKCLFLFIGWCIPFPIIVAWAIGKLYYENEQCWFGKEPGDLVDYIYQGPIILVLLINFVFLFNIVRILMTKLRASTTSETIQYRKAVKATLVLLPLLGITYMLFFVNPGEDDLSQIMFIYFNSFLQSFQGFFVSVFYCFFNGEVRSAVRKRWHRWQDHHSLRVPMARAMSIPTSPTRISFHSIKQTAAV
T5 sequence (P24387 whole entry): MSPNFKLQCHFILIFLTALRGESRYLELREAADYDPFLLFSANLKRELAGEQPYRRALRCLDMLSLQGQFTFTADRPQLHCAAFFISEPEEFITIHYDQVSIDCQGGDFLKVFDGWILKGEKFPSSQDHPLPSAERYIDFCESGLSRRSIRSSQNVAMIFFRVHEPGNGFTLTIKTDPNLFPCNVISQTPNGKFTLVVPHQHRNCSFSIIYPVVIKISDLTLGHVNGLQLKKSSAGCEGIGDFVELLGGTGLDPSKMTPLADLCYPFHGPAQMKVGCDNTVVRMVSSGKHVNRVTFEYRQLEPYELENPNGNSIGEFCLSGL

Chain of Mucolipin-3 (Q8TDD5 whole entry): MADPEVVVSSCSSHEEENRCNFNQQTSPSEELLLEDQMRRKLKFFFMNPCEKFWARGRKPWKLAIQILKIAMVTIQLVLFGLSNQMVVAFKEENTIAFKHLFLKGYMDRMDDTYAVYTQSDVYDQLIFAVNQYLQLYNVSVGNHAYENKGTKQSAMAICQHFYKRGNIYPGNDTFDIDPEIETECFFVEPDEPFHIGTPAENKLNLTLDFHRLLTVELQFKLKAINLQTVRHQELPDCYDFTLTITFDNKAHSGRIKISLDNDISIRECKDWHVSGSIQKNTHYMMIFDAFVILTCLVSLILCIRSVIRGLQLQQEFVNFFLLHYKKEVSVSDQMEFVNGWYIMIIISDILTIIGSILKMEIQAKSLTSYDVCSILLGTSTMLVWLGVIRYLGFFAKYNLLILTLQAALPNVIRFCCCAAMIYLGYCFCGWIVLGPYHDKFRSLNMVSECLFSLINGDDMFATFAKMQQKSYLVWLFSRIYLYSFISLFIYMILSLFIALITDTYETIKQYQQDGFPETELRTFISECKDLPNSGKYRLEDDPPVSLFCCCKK

For `COc1ccc(N2C(=O)C(F)(F)C2c2ccccc2F)cc1` (centres undefined), the EC50 [1] was 3.96 µM (active) and the EC50 [2] was > 29.9 µM (not active).

In the case of `Cc1cccc(C)c1Nc1nc2ccccc2o1`, the IC50 [3] is reported as 26.7 µM (active).

With `Cc1ccc(SC2=C(Sc3ccc(C)cc3)C(=O)c3ccccc3C2=O)cc1` the IC50 [4] was > 80 µM (inactive), the IC50 [5] was 15.9 µM (active) and the IC50 [6] was 1.38 µM (active).

With `CCCCC1=NN2C(=N)/C(=C/c3c[nH]c4ccccc34)C(=O)N=C2S1` the IC50 [3] was 61.7 µM (active).

With `Cc1cc(Cl)cc(C)c1OCCn1ccnc1` the CC50 [7] was 33.5 µM (active) and the IC50 [8] was 32.9 µM (active).

In the case of `O=c1c([N+](=O)[O-])cc(C(F)(F)F)cn1Cc1cccc(Cl)c1`, the IC50 [9] is reported as > 100 µM (inactive).

With `COC(=O)C(Nc1ccccc1Cl)(c1cc(C)c(O)c(C)c1)C(F)(F)F` (centres undefined) the EC50 [10] was 1.58 µM (active), the EC50 [11] was 17.2 µM (active) and the EC50 [12] was 9.48 µM (active). The “Absolute IC50 (XBP1)” value [13] was under 10 µM.

For `O=C(c1ccc(F)cc1)N1CCN2C(=O)c3ccccc3C12c1ccccc1` (centres undefined), the IC50 [8] was 31.2 µM (active).

In the case of `CC(C)C[C@@H](CC(=O)N[C@@H](CCC(=O)O)CC(=O)O)NC(=O)[C@@H]1CCCC[C@H]1NC(=O)C[C@@H](NC(=O)C[C@H](CO)NC(=O)[C@@H]1CCCC[C@H]1N)C(C)C`, the AC50 [14] is reported as 20 µM (inconclusive).

For `Cc1cc(Cl)ccc1C(=O)C1CCCN(C(=O)c2snnc2C)C1` (centres undefined), the EC50 [15] was > 120 µM (not active).

In the case of `COc1ccc(OC)c(N/C=C/C(=O)c2ccccc2)c1`, the EC50 [16] is reported as 6.32 µM (inconclusive), the EC50 [17] is reported as 1.35 µM (active) and the EC50 [18] is reported as 0.476 µM (inconclusive). For the same compound, the EC50 [19] was 3.8 µM (active), the EC50 [20] was 0.276 µM (active) and the EC50 [21] was 0.982 µM (active). For the same compound, the IC50 [22] was > 39.8 µM (not active).

In the case of `CC(=O)OCC1OC(C#Cc2ccc(C(C)(C)C)cc2)C=CC1OC(C)=O` (centres undefined), the AC50 [14] is reported as 6.31 µM (inconclusive).

In the case of `COc1ccc(-n2ncc3c(N4CCN(Cc5ccccc5)CC4)ncnc32)cc1`, the EC50 [23] is reported as 35.9 µM (inactive).

With `COc1cc(/N=C/c2c(O)[nH]c3ccccc23)cc(OC)c1OC` the EC50 [16] was < 0.1 µM (active), the EC50 [19] was 0.108 µM (active) and the IC50 [22] was > 39.8 µM (not active). The IC50 [24] was 3.15 µM (active).

With `COC(=O)COc1ccc(/C=N/NC(=O)CN(c2ccccc2OC)S(=O)(=O)c2ccccc2)cc1` the EC50 [23] was 6.65 µM (active).

For `COc1ccccc1N(CC(=O)N1CCCCC1)S(=O)(=O)c1ccccc1`, the EC50 [1] was 0.59 µM (active), the EC50 [2] was 12.4 µM (not active) and the EC50 [25] was 8.61 µM (active).
